In the oligonucleotide strings, read from the 5' end, every base follows the letter of its sugar. An asterisk marks phosphorothioate; unmarked linkages are phosphodiester. Other units and linkages are bracketed, terminal groups are in braces. A string of capitals states the bases alone. e = 2'-O-(2-methoxyethyl) (MOE); [5mC] = 5-methylcytosine; d = 2'-deoxy (DNA)
What was measured:
T47D cells = experiment: Cell cycle assay in T47D cells; type: cell-based, human; details: 150 nM, 48 hours, relative to untreated control
[1] = tested on: BJ, B16-F10, T47D, T47Dp53 and HeLa cells; experiment: Cell cycle assay (propidium iodide flow cytometry), cell line panel; type: cell-based; details: 150 nM, 72 hours (Table 29)

Substance | % cells in cell cycle phase G1 (T47D cells) | % cells in cell cycle phase G2/M (T47D cells) | % cells in cell cycle phase S (T47D cells) | % cells in cell cycle phase aneuploid (T47D cells) | % cells in cell cycle phase subG1 (T47D cells) | percentage of cells in the G2/M phase [1] | percentage of cells with hypodiploid DNA content (subG1) [1]
328403 (antisense eA*eG*eG*e[5mC]*e[5mC]*dT*dA*dT*dT*d[5mC]*d[5mC]*dT*dG*dT*dA*eG*e[5mC]*eA*eA*eA) [compound 328403] | 104% | 89% | 112% | 175% | 49% | – | –
CTAGTGGTCCTAAACATTTCAC (chemistry not given here) [ISIS 327878, uniform 2′-MOE PS; targets mir-203] | – | – | – | – | – | increased percentage of cells in the G2/M phase | increased percentage of cells with hypodiploid DNA content

Reference: US8178506B2, “Oligomeric compounds and compositions for use in modulation of small non-coding RNAs” (Regulus Therapeutics Inc., priority 2003, dated 2012)
